The values that follow are results of earlier work, collected in patent US6761879B1, “Titanium derived compounds, preparation and use thereof” (Sanofi-Synthelabo, priority 1999, dated 2004).

The conditions of data set [1]: known from prior art.
The conditions of data set [2]: in particular in aqueous solution.

Consider `[F][Ti]([F])([F])[F]` [titanium tetrafluoride], for which the “pH in aqueous solution” value was “about 1.5”. The “formation of an amorphous protective layer (glaze) at the surface of the enamel of the tooth” value in data set [1] is recorded as “forming an amorphous protective layer”. Further, the stability entry in data set [2] is reported as “relatively unstable”.
